Test results: the NIST ThermoML archive (doi:10.1021/je200252c)
± gives the expanded uncertainty stated by the source.

Assay: Molar enthalpy of transition or fusion
Details: Crystal; DSC

c1ccc2c(c1)OP1(=NP3(=NP4(=N1)Oc1ccccc1O4)Oc1ccccc1O3)O2 [tris(o-phenylenedioxy)cyclotriphosphazene]
Molar enthalpy of transition or fusion: 4.67 ± 0.143 kcal/mol
